In patent publication US9604940B2 (Chroma Therapeutics Ltd., priority 2012, dated 2017):

Columns and labels:
MCP-1 = assay: MCSF-stimulation of human whole blood, MCP-1 levels by sandwich ELISA; format: cell-based; conditions: inhibitor 2 hours before MCSF 50 ng/ml, 22 hrs, MCP-1 in cell-free supernatants, read-out: Inhibitor activity versus MCP-1
Method: Macrophage Colony-Stimulating Factor (MCSF)-Stimulation of Human Whole Blood
Whole blood was taken by venous puncture using heparinised vacutainers (Becton Dickinson) and diluted in an equal volume of RPMI1640 tissue culture media (Sigma). 100 μl was plated in V-bottomed 96 well tissue culture treated plates. 2 hours after the addition of the inhibitor in 100 μl of RPMI1640 media, the blood was stimulated with MCSF (Peprotech: #300-25-10 uG) at a final concentration of 50 ng/ml and incubated at 37° C. in 5% CO2 for 22 hrs. MCP-1 levels were measured from cell-free supernatants by sandwich ELISA developed from MCP-1/CCL2 Duoset (R&D Systems #DY279). Additional reagents required for ELISA were purchased from Sigma, (BSA: A3059, 10×PBS: D1408, Tween20: P5927) R&D Systems, (colour reagent: #DY999 and stop solution: #DY994) and Costar (96-well EIA plates: #2592). Assays were carried out following the manufacturer's instructions with the following modifications: Cell-free supernatants were diluted 30:70 in reagent diluent before assay. All incubations except capture antibody were carried out with shaking at 550 rpm. 3 washes were carried out between steps, and incubation times were blocking 1.5 hr, sample/standard and detection antibody incubations 2 hr, HRP incubation 30 min, colour development 20 min. • IC50 values were allocated to one of five ranges as follows: • Range A: IC50<100 nM • Range B: 100 nM<IC50<300 nM • Range C: 300 nM<1050<1000 nM • Range D: 1000 nM<IC50<5000 nM • Range E: IC50>5000 nM • NT=not tested

CSF1R (FMS) = molecular target: T1, CSF1R (FMS) (Homo sapiens, UniProt P07333); assay: CSF1R (FMS) kinase activity, Z'-LYTE biochemical assay (Invitrogen); conditions: ATP at or close to Km, 60 minute reaction at room temperature, read-out: Inhibitor activity versus CSF-1
T1 construct: purchased Invitrogen (Paisley, UK)
Method: CSF1R (FMS) Kinase Activity
The ability of compounds to inhibit CSF1R (FMS) kinase activity was measured in an assay performed by Invitrogen (Paisley, UK). The Z′-LYTE™ biochemical assay employs a fluorescence-based, coupled-enzyme format and is based on the differential sensitivity of phosphorylated and non-phosphorylated peptides to proteolytic cleavage. The peptide substrate is labelled with two fluorophores—one at each end—that make up a FRET pair. In the primary reaction, the kinase transfers the gamma-phosphate of ATP to a single […] residue in a synthetic FRET-peptide. In the secondary reaction, a site-specific protease recognizes and cleaves non-phosphorylated FRET-peptides. Phosphorylation of FRET-peptides suppresses cleavage by the Development Reagent. Cleavage disrupts FRET between the donor (i.e. coumarin) and acceptor (i.e. fluorescein) fluorophores on the FRET-peptide, whereas uncleaved, phosphorylated FRET-peptides maintain FRET. A […] method, which calculates the ratio (the Emission Ratio) of donor emission to acceptor emission after excitation of the donor fluorophore at 400 nm, is used to quantitate reaction progress.
The final 10 μL Kinase Reaction consists of 0.12-12.3 ng CSF1R (FMS), 2 μM Tyr 01 Peptide and ATP in 50 mM HEPES pH 7.5, 0.01% BRIJ-35, 10 mM MgCl2, 1 mM EGTA. The assay is performed at an ATP concentration at, or close to, the Km. After the 60 minute Kinase Reaction incubation at room temperature, 5 μL of a 1:256 dilution of Development Reagent is added. The assay plate is incubated for a further 60 minutes at room temperature and read on a fluorescence plate reader.
Duplicate data points are generated from a ⅓ log dilution series of a stock solution of test compound in DMSO. Nine dilutions steps are made from a top concentration of 10 mM, and a ‘no compound’ blank is included. Data is collected and analysed using XLfit software from IDBS. The dose response curve is curve fitted to model number 205 (sigmoidal dose-response model). From the curve generated, the concentration giving 50% inhibition is determined and reported.

T1 sequence (P07333 20-972): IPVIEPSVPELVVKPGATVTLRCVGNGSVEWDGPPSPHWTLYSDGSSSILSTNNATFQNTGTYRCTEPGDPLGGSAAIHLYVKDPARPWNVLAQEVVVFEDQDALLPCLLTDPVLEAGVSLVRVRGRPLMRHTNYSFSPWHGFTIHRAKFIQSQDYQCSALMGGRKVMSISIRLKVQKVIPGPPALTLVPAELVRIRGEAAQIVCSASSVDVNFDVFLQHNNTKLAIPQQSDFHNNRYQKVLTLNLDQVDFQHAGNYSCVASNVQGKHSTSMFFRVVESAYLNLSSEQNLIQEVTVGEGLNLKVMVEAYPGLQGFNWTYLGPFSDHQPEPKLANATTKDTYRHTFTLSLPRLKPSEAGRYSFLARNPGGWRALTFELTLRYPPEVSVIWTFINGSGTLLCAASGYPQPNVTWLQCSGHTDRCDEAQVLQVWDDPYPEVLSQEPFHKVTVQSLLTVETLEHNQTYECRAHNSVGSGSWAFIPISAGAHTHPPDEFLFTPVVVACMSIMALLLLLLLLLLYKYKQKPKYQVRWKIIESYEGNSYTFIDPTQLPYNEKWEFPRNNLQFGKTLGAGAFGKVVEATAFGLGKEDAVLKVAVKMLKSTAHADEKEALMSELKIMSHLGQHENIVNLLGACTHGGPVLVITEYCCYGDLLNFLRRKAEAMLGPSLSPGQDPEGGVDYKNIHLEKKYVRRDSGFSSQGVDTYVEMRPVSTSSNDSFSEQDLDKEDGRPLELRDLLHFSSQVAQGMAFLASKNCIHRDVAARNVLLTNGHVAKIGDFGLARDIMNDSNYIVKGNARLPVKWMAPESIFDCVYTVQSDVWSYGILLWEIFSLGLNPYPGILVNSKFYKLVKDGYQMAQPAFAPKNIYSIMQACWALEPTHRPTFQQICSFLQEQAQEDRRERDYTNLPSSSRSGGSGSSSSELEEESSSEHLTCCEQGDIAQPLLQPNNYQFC

Structure (SMILES)	IC50 (MCP-1) [nM]	IC50 (CSF1R (FMS)) [nM]
CC(C)(NCc1cccc(-c2cnc(N)c(NCc3c(Cl)cccc3Cl)n2)c1)C(=O)OC1CCCC1 [Example 40, Cyclopentyl N-(3-{5-amino-6-[(2,6-dichlorobenzyl)amino]pyrazin-2-yl}benzyl)-2-methylalaninate]	1000 to 5000	> 5000
Nc1ncc(-c2ccc(CNC3CCN[C@H](C(=O)OC4CCCC4)C3)cc2)nc1NCc1c(Cl)cccc1Cl (stereo partly drawn) [Example 8, Cyclopentyl (2S)-4-[(4-{5-amino-6-[(2,6-dichlorobenzyl)amino]pyrazin-2-yl}benzyl)amino]piperidine-2-carboxylate]	100 to 300	< 100
Nc1ncc(-c2ccc(CNC3CCN[C@@H](C(=O)OC4CCCC4)C3)cc2)nc1NCc1c(Cl)cccc1Cl (stereo partly drawn) [Example 7, Cyclopentyl (2R)-4-[(4-{5-amino-6-[(2,6-dichlorobenzyl)amino]pyrazin-2-yl}benzyl)amino]piperidine-2-carboxylate]	100 to 300	< 100
CN(Cc1ccc(-c2cnc(N)c(NCc3c(Cl)cccc3Cl)n2)cc1)C1CCN[C@@H](C(=O)OC2CCCC2)C1 (stereo partly drawn) [Example 28, Cyclopentyl (2R)-4-[(4-{5-amino-6-[(2,6-dichlorobenzyl)amino]pyrazin-2-yl}benzyl)(methyl)amino]piperidine-2-carboxylate]	< 100	100 to 300
Nc1ncc(-c2cccc(CCNC3(C(=O)OC4CCCC4)CCC3)c2)nc1NCc1c(Cl)cccc1Cl [Example 49, Cyclopentyl 1-{[2-(3-{5-amino-6-[(2,6-dichlorobenzyl)amino]pyrazin-2-yl}phenyl)ethyl]amino}cyclobutanecarboxylate]	1000 to 5000	1000 to 5000
CCN(Cc1ccc(-c2cnc(N)c(NCc3c(Cl)cccc3Cl)n2)cc1)C1CCN[C@@H](C(=O)OC(C)(C)C)C1 (stereo partly drawn) [Example 30, tert-Butyl (2R)-4-[(4-{5-amino-6-[(2,6-dichlorobenzyl)amino]pyrazin-2-yl}benzyl)(ethyl)amino]piperidine-2-carboxylate]	100 to 300	100 to 300
CC(C)(C)OC[C@H](NCc1cccc(-c2cnc(N)c(NCc3c(Cl)cccc3Cl)n2)c1)C(=O)OC1CCCC1 [Example 43, Cyclopentyl N-(3-{5-amino-6-[(2,6-dichlorobenzyl)amino]pyrazin-2-yl}benzyl)-O-tert-butyl-L-serinate]	> 5000	> 5000
CC(C)(C)OC(=O)[C@H]1CC(NCc2cccc(-c3cnc(N)c(NCc4c(Cl)cccc4Cl)n3)c2)CCN1 (stereo partly drawn) [Example 46, tert-Butyl (2R)-4-[(3-{5-amino-6-[(2,6-dichlorobenzyl)amino]pyrazin-2-yl}benzyl)amino]piperidine-2-carboxylate]	300 to 1000	< 100

Other lines, results leading:

IC50 (MCP-1) [nM]	IC50 (CSF1R (FMS)) [nM]	Structure (SMILES)
> 5000	> 5000	CC(C)C[C@H](NCc1cccc(-c2cnc(N)c(NCc3c(Cl)cccc3Cl)n2)c1)C(=O)OC(C)(C)C [Example 39, tert-Butyl N-(3-{5-amino-6-[(2,6-dichlorobenzyl)amino]pyrazin-2-yl}benzyl)-L-leucinate]
100 to 300	< 100	Nc1ncc(-c2cccc(CCNC3CCN[C@H](C(=O)OC4CCCC4)C3)c2)nc1NCc1c(Cl)cccc1Cl (stereo partly drawn) [Example 51, Cyclopentyl (2S)-4-{[2-(3-{5-amino-6-[(2,6-dichlorobenzyl)amino]pyrazin-2-yl}phenyl)ethyl]amino}piperidine-2-carboxylate]
1000 to 5000	< 100	CN(C(=O)c1ccc(-c2cnc(N)c(NCc3c(Cl)cccc3Cl)n2)cc1)C1CCN[C@@H](C(=O)OC(C)(C)C)C1 (stereo partly drawn) [Example 5, tert-Butyl (2R)-4-[(4-{5-amino-6-[(2,6-dichlorobenzyl)amino]pyrazin-2-yl}benzoyl)(methyl)amino]piperidine-2-carboxylate]
100 to 300	< 100	Nc1ncc(-c2cccc(CCNC3CCN[C@@H](C(=O)OC4CCCC4)C3)c2)nc1NCc1c(Cl)cccc1Cl (stereo partly drawn) [Example 50, Cyclopentyl (2R)-4-{[2-(3-{5-amino-6-[(2,6-dichlorobenzyl)amino]pyrazin-2-yl}phenyl)ethyl]amino}piperidine-2-carboxylate]
1000 to 5000	100 to 300	CC(C)(C)OC(=O)[C@H]1CC(NC(=O)c2cccc(-c3cnc(N)c(NCc4c(Cl)cccc4Cl)n3)c2)CCN1 (stereo partly drawn) [Example 33, tert-Butyl (2R)-4-[(3-{5-amino-6-[(2,6-dichlorobenzyl)amino]pyrazin-2-yl}benzoyl)amino]piperidine-2-carboxylate]
100 to 300	100 to 300	Nc1ncc(-c2ccc(CNC3CCN[C@@H](C(=O)OC4CCCC4)C3)c(Cl)c2)nc1NCc1c(Cl)cccc1Cl (stereo partly drawn) [Example 18, Cyclopentyl (2R)-4-[(4-{5-amino-6-[(2,6-dichlorobenzyl)amino]pyrazin-2-yl}-2-chlorobenzyl)amino]piperidine-2-carboxylate]
300 to 1000	< 100	Cc1cc(-c2cnc(N)c(NCc3c(Cl)cccc3Cl)n2)ccc1CNC1CCN[C@@H](C(=O)OC(C)(C)C)C1 (stereo partly drawn) [Example 26, tert-Butyl (2R)-4-[(4-{5-amino-6-[(2,6-dichlorobenzyl)amino]pyrazin-2-yl}-2-methylbenzyl)amino]piperidine-2-carboxylate]
300 to 1000	> 5000	Nc1ncc(-c2cccc(CNC3(C(=O)OC4CCCC4)CCC3)c2)nc1NCc1c(Cl)cccc1Cl [Example 42, Cyclopentyl 1-[(3-{5-amino-6-[(2,6-dichlorobenzyl)amino]pyrazin-2-yl}benzyl)amino]cyclobutanecarboxylate di-formate]
1000 to 5000	1000 to 5000	C[C@H](NCc1cccc(-c2cnc(N)c(NCc3c(Cl)cccc3Cl)n2)c1)C(=O)OC(C)(C)C [Example 45, tert-Butyl N-(3-{5-amino-6-[(2,6-dichlorobenzyl)amino]pyrazin-2-yl}benzyl)-L-alaninate]
300 to 1000	100 to 300	Nc1ncc(-c2ccc(C(=O)N3CCNC(C(=O)OC4CCCC4)C3)cc2)nc1NCc1c(Cl)cccc1Cl (stereo not drawn) [Example 3, Cyclopentyl 4-(4-{5-amino-6-[(2,6-dichlorobenzyl)amino]pyrazin-2-yl}benzoyl)piperazine-2-carboxylate]
100 to 300	300 to 1000	Nc1ncc(-c2cccc(CN3CCN[C@H](C(=O)OC4CCCC4)C3)c2)nc1NCc1c(Cl)cccc1Cl [Example 36, Cyclopentyl (2S)-4-(3-{5-amino-6-[(2,6-dichlorobenzyl)amino]pyrazin-2-yl}benzyl)piperazine-2-carboxylate]
100 to 300	100 to 300	Nc1ncc(-c2cnn(CCNC3CCN[C@@H](C(=O)OC4CCCC4)C3)c2)nc1NCc1c(Cl)cccc1Cl (stereo partly drawn) [Example 55, Cyclopentyl (2R)-4-{[2-(4-{5-amino-6-[(2,6-dichlorobenzyl)amino]pyrazin-2-yl}-1H-pyrazol-1-yl)ethyl]amino}piperidine-2-carboxylate di-formate]
300 to 1000	< 100	Nc1ncc(-c2cccc(CNC3CCN[C@H](C(=O)OC4CCCC4)C3)c2)nc1NCc1c(Cl)cccc1Cl (stereo partly drawn) [Example 35, Cyclopentyl (2S)-4-[(3-{5-amino-6-[(2,6-dichlorobenzyl)amino]pyrazin-2-yl}benzyl)amino]piperidine-2-carboxylate di-formate]
